Experimental data published in article PMC5816626, “A multitarget approach to drug discovery inhibiting Mycobacterium tuberculosis PyrG and PanK” (Scientific Reports, 2018).
≈ marks a conversion by molar mass, not a printed value. Entries after “also recorded” stand apart in the source; their conditions may differ.

Key:
M. tuberculosis H37Ra = assay: microbe, parasite or virus in culture; type: cell-based; settings: Mycobacterium tuberculosis, read-out: Growth inhibition at harvest (OD600)
[1] = molecular target: M. tuberculosis PanK wild type (Mycobacterium tuberculosis, UniProt P9WPA7); assay: biochemical
M. tuberculosis PyrG = test system: M. tuberculosis PyrG; parameters: method as in PMID 26097035, PMID 28475832; settings: previously identified PyrG inhibitors; cited from earlier work
M. tuberculosis = test system: M. tuberculosis; parameters: method as in PMID 26097035, PMID 28475832; settings: known antitubercular activity; cited from earlier work
M. tuberculosis H37Rv = assay: MIC against M. tuberculosis H37Rv (wild type); type: cell-based; settings: Mycobacterium tuberculosis; strain H37Rv
M. tuberculosis PanK = M. tuberculosis PanK (Mycobacterium tuberculosis, UniProt P9WPA7); assay: PanK activity during incubation with prodrug and EthA; type: biochemical; settings: 8 hours of incubation with EthA and NADPH, compound 0.3 mM
human cell lines = test system: human cell lines; parameters: method as in PMID 26097035; settings: cited from earlier work

Sequence of M. tuberculosis PanK wild type (P9WPA7 whole entry): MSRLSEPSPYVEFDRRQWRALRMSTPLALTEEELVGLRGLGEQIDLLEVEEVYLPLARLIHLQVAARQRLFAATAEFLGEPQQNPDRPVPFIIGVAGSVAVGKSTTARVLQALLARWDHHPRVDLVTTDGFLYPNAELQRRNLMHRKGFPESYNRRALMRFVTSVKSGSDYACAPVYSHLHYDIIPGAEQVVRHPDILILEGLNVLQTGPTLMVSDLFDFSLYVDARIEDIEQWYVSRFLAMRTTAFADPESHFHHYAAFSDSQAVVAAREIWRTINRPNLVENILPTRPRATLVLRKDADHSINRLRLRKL
Sequence of M. tuberculosis PanK (P9WPA7 whole entry): as above

| SMILES | inhibition at 0.2 µg/mL (M. tuberculosis H37Ra) [%] | IC50 [1] [µM] | IC50 (M. tuberculosis PyrG) [µM] | MIC (M. tuberculosis) [µM] | MIC (M. tuberculosis H37Rv) [µg/mL] | further results |
| --- | --- | --- | --- | --- | --- | --- |
| C[C@H]1COC2(CCN(c3nc(=O)c4cc(C(F)(F)F)cc([N+](=O)[O-])c4s3)CC2)O1 [BTZ043, reference compound] | 23 |  |  |  |  |  |
| O=C(CN1CCN(Cc2ccccc2)CC1)Nc1ccc([N+](=O)[O-])cc1C(=O)c1ccccc1 [CDD-823953, N-(2-benzoyl-4-nitrophenyl)-2-(4-benzylpiperazin-1-yl)acetamide] |  | 250 | 80 | 4.39 (≈ 2.01 µg/mL) |  |  |
| COc1ccc(-c2nnc(SCC(=O)Nc3ccc([N+](=O)[O-])cc3)o2)cc1 [CDD-934506, 2-((5-(4-methoxyphenyl)-1,3,4-oxadiazol-2-yl)sulfanyl)-N-(4-nitrophenyl)acetamide] |  | 40 |  | 0.87 (≈ 0.336 µg/mL) |  | PyrG IC50 (M. tuberculosis PyrG): inactive; also recorded: n. i |
| CCc1cc(C(N)=S)ccn1 [Ethionamide, reference compound] |  |  |  |  | 1 (≈ 6.02 µM) |  |
| c1ccc(-c2csc(Nc3nc4cc5c(cc4s3)OCO5)n2)nc1 [GSK735826A, N-(4-(pyridin-2-yl)thiazol-2-yl)-(1,3)dioxolo(4′,5′:4,5)benzo(1,2-d)thiazol-6-amine] | 66 | 70 | 22 | 2.7 (≈ 0.957 µg/mL) |  | Ki ([1]; competitive inhibitor towards the ATP binding site): 65.3 ± 4.33 µM |
| O=C(COc1cccc(F)c1)Nc1nc(-c2ccccn2)cs1 [GSK920684A, 2-(3-fluorophenoxy)-N-(4-(pyridin-2-yl)thiazol-2-yl)acetamide] | 26 |  | 22 |  |  | PanK IC50 [1]: n. i. |
| O=C(Cc1ccc(F)cc1)Nc1nc(-c2ccccn2)cs1 [GSK1570606A, 2-(4-fluorophenyl)-N-(4-(pyridin-2-yl)thiazol-2-yl)acetamide] | 37 |  | 4.2 | 9.3 (≈ 2.91 µg/mL) |  | PanK IC50 [1]: n. i. |
| O=C(CCc1ccccc1)NC(=S)Nc1ccc(N2CCCCC2)cc1 [compound 7904688, 3-phenyl-N-[(4-piperidin-1-ylphenyl)carbamothioyl]propanamide] |  |  |  |  | 0.5 (≈ 1.36 µM) | loss of PanK activity (M. tuberculosis PanK): more than 90%; toxicity against human cell lines (human cell lines): very low toxicity |
| Cc1ccc(C(=O)Nc2ccc([N+](=O)[O-])cc2)s1 [compound 7947882, 5-methyl-N-(4-nitrophenyl)thiophene-2-carboxamide] |  |  |  |  | 0.5 (≈ 1.91 µM) | loss of PanK activity (M. tuberculosis PanK): more than 90%; toxicity against human cell lines (human cell lines): very low toxicity |
| CC1=CC=C(C(=O)Nc2ccc([N+](=O)[O-])cc2)S1(=O)=O [compound 11426026] | 83 |  |  |  | 1 (≈ 3.4 µM) |  |
